Reference: PMC7481439 (Frontiers in Pediatrics, 2020)
Marks after values point to notes of the source that are not given here.

Key:
[1] = neonatal centrifugal-based circuit, volume 200 ml, recovery at 180 min, n = 2; ref Wildschut ([18]); cited from earlier work
[2] = adult centrifugal-based circuit, volume 670 ml, n = 4, ref Shekar ([22]); cited from earlier work
[3] = adult centrifugal-based circuit, volume 800 ml, n = 3, ref Lemaitre ([39]); cited from earlier work
[4] = Table 2; Drug Bank online database; cited from earlier work
[5] = volume of distribution, listed under physico-chemical data; source not stated for Vd; cited from earlier work
[6] = Spontaneous drug degradation (T2 control sample analysed at 24 h); conditions: whole blood control sample drawn at 2 min, kept in EDTA tube at the temperature of the circuits until 24 h; difference in drug recovery between T2 and T2-24; average
[7] = In vitro closed-loop ECMO circuit model: drug recovery / sequestration
[8] = parameters: method as in PMID 18048412; conditions: Drug Bank online database; cited from earlier work

Compound | Mean drug recovery, Medos n [1] | Mean drug recovery at 24 h, Quadrox a (Shekar) [2] | Mean drug recovery at 24 h, Quadrox a (Lemaitre) [3] | PB % [4] | Vd [5] | Spontaneous degradation [6] | Decrease of drug level after 24 h, ILA active ([7]; ILA active circuit, whole blood primed, 24-h exposure) | Mean drug recovery after 24 h of circulation, r-ML ([7]; MiniLung (infant) circuit, whole blood primed, 700 ml/min, 24 h, dose VOR 40 mg, VAN 54 mg, expected level VOR 117.1, VAN 177.1 mg/L, corrected for spontaneous degradation, plasma, LC-MS/MS (VOR) or immune-assay (VAN), mean (±SD), n = 2 circuits, SD) | Mean drug recovery after 24 h of circulation, r-MLP ([7]; MiniLung petite (neonatal) circuit, whole blood primed, 500 ml/min, 24 h, dose VOR 35 mg, VAN 45 mg, expected level VOR 140, VAN 180 mg/L, corrected for spontaneous degradation, plasma, LC-MS/MS (VOR) or immune-assay (VAN), mean (±SD), n = 3 circuits, SD) | Decrease of drug level after 24 h, XLung ([7]; XLung circuit, whole blood primed, 24-h exposure) | Mean drug recovery after 24 h of circulation, r-XL ([7]; Xlung (adult) circuit, whole blood primed, […], 24 h, dose VOR 68 mg, VAN 91.8 mg, expected level VOR 143.2, VAN 193.7 mg/L, corrected for spontaneous degradation, plasma, LC-MS/MS (VOR) or immune-assay (VAN), mean (±SD), n = 2 circuits, SD) | Mean drug recovery at 24 h, ML ([7]; current experiment, MiniLung circuit, whole blood primed, volume 310 ml, 24 h, n = 2) | Mean drug recovery at 24 h, MLP ([7]; current experiment, MiniLung petite circuit, whole blood primed, volume 250 ml, 24 h, n = 3) | Mean drug recovery at 24 h, Xlung ([7]; current experiment, Xlung circuit, whole blood primed, volume 480 ml, 24 h, n = 2) | Mean drug recovery at 24 h, iLA ([7]; current experiment, iLAActivve circuit, whole blood primed, volume 400 ml, 24 h, n = 2) | Mean drug recovery after 24 h of circulation, r-iLA ([7]; iLAActivve iLA (pediatric) circuit, whole blood primed, […], 24 h, dose VOR 52.5 mg, VAN 67.5 mg, expected level VOR 134.7, VAN 173.2 mg/L, corrected for spontaneous degradation, plasma, LC-MS/MS (VOR) or immune-assay (VAN), mean (±SD), n = 2 circuits) | Mean percentage of drug recovery at 24 h ([7]; mean over all nine whole-blood primed circuits (MLP, ML, iLA, XLung), single bolus, pre-membrane (P2) plasma samples, 24 h, corrected for average spontaneous degradation, LC-MS/MS (voriconazole), immune-assay Architect (vancomycin), samples in triplicate) | Decrease of drug level after 24 h, minilung ([7]; minilung circuit, whole blood primed, 24-h exposure) | LogP [8]
CN[C@H](CC(C)C)C(=O)N[C@H]1C(=O)N[C@@H](CC(N)=O)C(=O)N[C@H]2C(=O)N[C@H]3C(=O)N[C@H](C(=O)N[C@H](C(=O)O)c4cc(O)cc(O)c4-c4cc3ccc4O)[C@H](O)c3ccc(c(Cl)c3)Oc3cc2cc(c3O[C@@H]2O[C@H](CO)[C@@H](O)[C@H](O)[C@H]2O[C@H]2C[C@](C)(N)[C@H](O)[C@H](C)O2)Oc2ccc(cc2Cl)[C@H]1O [vancomycin] | 67.1^* % | 90% | 100% | 50% | 0.4 to 1 L/kg | 2.4% | 38% | 133.2 (±49.7) mg/L | 112 (±31.6) mg/L | 50% | 96.5 (±13.5) mg/L | 73% | 60% | 48% | 60% | 108.5 (±4,4) mg/L | 62% | 25% | –
C[C@@H](c1ncncc1F)[C@](O)(Cn1cncn1)c1ccc(F)cc1F [voriconazole] | – | – | – | 58% | 4.6 L/kg | – | – | – | – | – | – | – | – | – | – | – | – | – | 1.8
